Measured values reported in publication PMC8619046, “ABCB1 and ABCG2 Control Brain Accumulation and Intestinal Disposition of the Novel ROS1/TRK/ALK Inhibitor Repotrectinib, While OATP1A/1B, ABCG2, and CYP3A Limit Its Oral Availability” (Pharmaceutics, 2021).
Several values for one entry are separate records, joined by “and”; a condition that tells them apart may be missing. Identical values can stand only once. Like-named read-outs stand apart in the source and are kept apart here.

How the values were obtained:
[1] = 8-h pilot oral plasma pharmacokinetics and tissue distribution, female wild-type, Abcb1a/1b;Abcg2−/− and Oatp1a/1b−/− mice; format: in vivo; conditions: female, mouse, po, 10 mg/kg, Table S1, 10 mg/kg oral, 8 h; for Cmax / AUC(0-t): plasma; for AUC(0-t): read-out: AUC0-8h
From the text: (§1) Mice with similar average ages (and body weights) were randomly allocated in experimental groups as far as possible. Mice were maintained in a temperature-controlled and specific pathogen-free environment with a 12-h light and 12-h dark cycle and they received a standard diet (Transbreed, SDS Diets, Technilab-BMI, Someren, The Netherlands) and acidified water ad libitum. […] Given the objective main readout (repotrectinib plasma and tissue concentrations as measured by LC-MS/MS), no blinding method was applied.
(§2) Repotrectinib was dissolved in dimethyl sulfoxide (DMSO) at a concentration of 50 mg/mL. This stock solution was first diluted 3-fold with ethanol/polysorbate 80 (1/1; v/v), followed by further dilution with a 10 mM hydrochloric acid solution, yielding a dosing solution of 1 mg/mL, freshly prepared on the day of experiment. Final concentrations of the solvents in the administration solution were: 2%, 2%, 2%, and 94% (all v/v) for DMSO, ethanol, polysorbate 80, and 10 mM hydrochloric acid solution, respectively.
(§3) To minimize variation in absorption upon oral administration, mice were fasted for 2–3 h before repotrectinib (10 mg/kg body weight) was administered by gavage into the stomach at 10 µL/g body weight, with a blunt-ended needle. Tail vein serial blood samples were collected at 0.125, 0.25, 0.5, 1, 2 and 4 h using heparinized capillary tubes (Sarstedt, Nümbrecht, Germany) for the 8-h experiments. For the 4- and 2-h experiments, blood samplings were performed from the tail vein with the same schedule, but terminated at 2 and 1 h, respectively. Eight, four, or two hours after oral administration, mice were deeply anesthetized with 2–3% isoflurane, followed by cardiac puncture to collect blood in Eppendorf tubes containing heparin as an anticoagulant. Brain, liver, spleen, kidney, lung, small intestine, and testis were rapidly collected after sacrificing the mice by cervical dislocation. The small intestinal contents (SIC) were separated from small intestinal tissue (SI), which was flushed and rinsed with cold saline to remove any residual feces. Brain, liver, spleen, kidney, lung, SI, SIC, and testis were homogenized with 1, 3, 1, 2, 1, 3, 2, and 1 mL of 2% BSA (w/v), respectively. Plasma fraction was isolated from blood by centrifugation at 9000× g for 6 min at 4 °C. All samples were stored at −30 °C until analysis.
(§4) A sensitive and specific liquid chromatography-tandem mass spectrometry method using protein precipitation pre-treatment was adopted to quantify the concentration of repotrectinib in DMEM medium, plasma samples and tissue homogenates.
(§5) A non-compartmental model using the PKSolver add-in program for Microsoft Excel was adopted to calculate the pharmacokinetic parameters of repotrectinib. Oral availability was assessed by the plasma area under the curve (AUC), calculated using repotrectinib plasma concentration-time curves with the linear trapezoidal rule without extrapolating the infinity. Statistical testing was performed in Graphpad Prism7 (Graphpad Software, La Jolla, CA, USA). All data are presented as geometric means ± SD. Heteroscedastic data were log-transformed before applying statistical analysis. When differences between two groups were compared, the two-sided unpaired Student’s t test was used. One-way analysis of variance (ANOVA) was applied when multiple groups were compared, and the Bonferroni post hoc correction was used to accommodate multiple testing. Differences were considered statistically significant when P < 0.05.

[2] = 4-h oral plasma pharmacokinetics and tissue distribution, male wild-type and Oatp1a/1b−/− mice; format: in vivo; conditions: 10 mg/kg oral; for Tmax: Table S2, median (range); for Fold change Cliver / Fold change SIC (% of dose) / Fold change ratio (SIC (%)-to-plasma) / Fold change ratio (brain-to-plasma) / Fold change ratio (liver-to-plasma) / Fold change ratio (testis-to-plasma) / Fold increase Cbrain / Fold increase Ctestis / Fold increase AUC0-4h: vs wild-type; for Kp at 4 h / concentration at 4 h / Cmax / AUC(0-t): male, po; for AUC(0-t): read-out: AUC0-4h
From the text: as §1, §2, §3, §4, §5

[3] = FVB, female Abcb1a/1b;Abcg2−/− mice
[4] = Table S2, male Oatp1a/1b−/− mice
[5] = FVB, mouse, plasma, 10 mg/kg, Table S2, male Oatp1a/1b−/− mice
[6] = FVB, mouse, plasma, 10 mg/kg, Table S2, male wild-type mice

Question: For C[C@H]1CNC(=O)c2cnn3ccc(nc23)N[C@H](C)c2cc(F)ccc2O1 [repotrectinib], which Kp at 8 h ([1]; FVB, liver, female wild-type mice, read-out: Liver-to-plasma ratio) is on record?
Answer: 5.36 ± 0.54

Question: And the Cmax [1, 3]?
Answer: 6190 ± 440 ng/mL

Question: What about the AUC(0-t) [1, 3] of the same compound?
Answer: 23100 ± 2110 ng·h/mL

Question: What about the AUC(0-t) ([1]; FVB, female Oatp1a/1b−/− mice) of the same compound?
Answer: 24600 ± 3270 ng·h/mL

Question: What about the Cmax ([1]; FVB, female wild-type mice) of the same compound?
Answer: 4800 ± 1780 ng/mL

Question: And the AUC(0-t) ([1]; FVB, female wild-type mice)?
Answer: 16300 ± 6350 ng·h/mL

Question: What about the Cmax ([1]; Oatp1a/1b−/−, >99% FVB background, female Oatp1a/1b−/− mice) of the same compound?
Answer: 6150 ± 800 ng/mL

Question: What about the Tmax ([2]; FVB, mouse, plasma, male wild-type mice, read-out: Tmax) of the same compound?
Answer: 30 min

Question: And the “SIC (% of dose)” value [2, 4]?
Answer: 8.52 ± 3.80 % of dose

Question: And the “SIC (%)-to-plasma ratio” value [2, 4]?
Answer: 5.81 ± 2.09 *10-3

Question: And the “Fold change Cliver” value [2, 4]?
Answer: 0.94

Question: And the “Fold change SIC (% of dose)” value [2, 4]?
Answer: 1.53

Question: And the “Fold change ratio (SIC (%)-to-plasma)” value [2, 4]?
Answer: 0.66

Question: What about the “Fold change ratio (brain-to-plasma)” value [2, 4] of the same compound?
Answer: 1.20

Question: And the “Fold change ratio (liver-to-plasma)” value [2, 4]?
Answer: 0.41

Question: And the “Fold change ratio (testis-to-plasma)” value [2, 4]?
Answer: 0.79

Question: What about the “Fold increase Cbrain” value [2, 4] of the same compound?
Answer: 2.71

Question: And the “Fold increase Ctestis” value [2, 4]?
Answer: 1.70

Question: And the “Fold increase AUC0-4h” value ([2]; Table S2, male Oatp1a/1b−/− mice, 10 mg/kg)?
Answer: 2.02 and 2

Question: And the “SIC (% of dose)” value ([2]; Table S2, male wild-type mice)?
Answer: 5.56 ± 1.34 % of dose

Question: And the “SIC (%)-to-plasma ratio” value ([2]; Table S2, male wild-type mice)?
Answer: 8.79 ± 2.41 *10-3

Question: What about the “Fold change Cliver” value ([2]; Table S2, male wild-type mice) of the same compound?
Answer: 1.00

Question: And the “Fold change SIC (% of dose)” value ([2]; Table S2, male wild-type mice)?
Answer: 1.00

Question: What about the “Fold change ratio (SIC (%)-to-plasma)” value ([2]; Table S2, male wild-type mice) of the same compound?
Answer: 1.00

Question: What about the “Fold change ratio (brain-to-plasma)” value ([2]; Table S2, male wild-type mice) of the same compound?
Answer: 1.00

Question: What about the “Fold change ratio (liver-to-plasma)” value ([2]; Table S2, male wild-type mice) of the same compound?
Answer: 1.00

Question: And the “Fold change ratio (testis-to-plasma)” value ([2]; Table S2, male wild-type mice)?
Answer: 1.00

Question: What about the “Fold increase AUC0-4h” value ([2]; Table S2, male wild-type mice) of the same compound?
Answer: 1.00

Question: And the “Fold increase Cbrain” value ([2]; Table S2, male wild-type mice)?
Answer: 1.00

Question: And the “Fold increase Ctestis” value ([2]; Table S2, male wild-type mice)?
Answer: 1.00

Question: What about the Tmax ([2]; male Oatp1a/1b−/− mice) of the same compound?
Answer: 0.5 (0.25-1) h

Question: What about the “liver-to-plasma ratio, fold decrease” value ([2]; male Oatp1a/1b−/− mice vs wild-type) of the same compound?
Answer: 2.5 fold

Question: What about the Kp at 4 h ([2]; FVB, mouse, brain, 10 mg/kg, Table S2, male Oatp1a/1b−/− mice, read-out: Brain-to-plasma ratio) of the same compound?
Answer: 0.18 ± 0.04

Question: And the concentration at 4 h ([2]; FVB, mouse, brain, 10 mg/kg, Table S2, male Oatp1a/1b−/− mice, read-out: Cbrain)?
Answer: 258 ± 31 ng/g

Question: What about the Kp at 4 h ([2]; FVB, mouse, brain, 10 mg/kg, Table S2, male wild-type mice, read-out: Brain-to-plasma ratio) of the same compound?
Answer: 0.15 ± 0.03

Question: And the concentration at 4 h ([2]; FVB, mouse, brain, 10 mg/kg, Table S2, male wild-type mice, read-out: Cbrain)?
Answer: 95.1 ± 23.5 ng/g

Question: What about the concentration at 4 h ([2]; FVB, mouse, liver, 10 mg/kg, Table S2, male Oatp1a/1b−/− mice, read-out: Cliver) of the same compound?
Answer: 6240 ± 1400 ng/g

Question: And the Kp at 4 h ([2]; FVB, mouse, liver, 10 mg/kg, Table S2, male Oatp1a/1b−/− mice, read-out: Liver-to-plasma ratio)?
Answer: 4.3 ± 0.5

Question: What about the concentration at 4 h ([2]; FVB, mouse, liver, 10 mg/kg, Table S2, male wild-type mice, read-out: Cliver) of the same compound?
Answer: 6630 ± 1160 ng/g

Question: And the Kp at 4 h ([2]; FVB, mouse, liver, 10 mg/kg, Table S2, male wild-type mice, read-out: Liver-to-plasma ratio)?
Answer: 10.5 ± 1.9

Question: And the Cmax [2, 5]?
Answer: 5070 ± 590 ng/mL

Question: What about the AUC(0-t) [2, 5] of the same compound?
Answer: 14100 ± 1530 ng·h/mL

Question: What about the Cmax [2, 6] of the same compound?
Answer: 3080 ± 1440 ng/mL

Question: What about the AUC(0-t) [2, 6] of the same compound?
Answer: 6990 ± 2460 ng·h/mL

Question: What about the concentration at 4 h ([2]; FVB, mouse, testis, 10 mg/kg, Table S2, male Oatp1a/1b−/− mice, read-out: Ctestis) of the same compound?
Answer: 264 ± 37 ng/g

Question: And the Kp at 4 h ([2]; FVB, mouse, testis, 10 mg/kg, Table S2, male Oatp1a/1b−/− mice, read-out: Testis-to-plasma ratio)?
Answer: 0.19 ± 0.05

Question: What about the concentration at 4 h ([2]; FVB, mouse, testis, 10 mg/kg, Table S2, male wild-type mice, read-out: Ctestis) of the same compound?
Answer: 155 ± 55 ng/g

Question: What about the Kp at 4 h ([2]; FVB, mouse, testis, 10 mg/kg, Table S2, male wild-type mice, read-out: Testis-to-plasma ratio) of the same compound?
Answer: 0.24 ± 0.07
